In patent publication US10703798B2, “Methods of cancer therapy by inhibiting fusion polypeptides comprising fibroblast growth factor receptor 2 (FGFR2) and vinculin (VCL)” (DEBIOPHARM INTERNATIONAL SA, priority 2014, dated 2020):
“Also recorded” adds a separate entry of the source. Like-named read-outs stand apart in the source and are kept apart here.

Key:
[1] = system: FGFR2-VCL expressing Rat2 cells; test: Cell proliferation assay using Cell Titer Glo, FGFR2-VCL expressing cells; format: cell-based, rat; conditions: 72 h with inhibitor, cellular ATP content (Cell Titer Glo), read-out: Relative IC50
Protocol: (§1) Stable Rat2 cell pools stably expressing FGFR2-CCDC147 or FGFR2-VCL fusions, respectively, were generated using pExoIN2-based expression plasmids ExoIN2-FGFR2_CCDC147 and pExoIN2-FGFR2_VCL. pExoIN2 was obtained from Trenzyme, (Germany). The latter expression plasmids were introduced into Rat2 cells by electroporation (LONZA Nucleofector II Device/program [X-005], Solution R). 24 h post-transduction, cells were subjected to 1.5 µg/mL puromycin to derive stable expressor cell pools. The FGFR2-CCDC147 sequence used in this example was composed of SEQ ID NO: 16 for the FGFR2 part (nucleic acid 1 to nucleic acid 2574) and SEQ ID NO: 20 for the CCDC147 part (nucleic acid 156 to nucleic acid 3313). The FGFR2-VCL sequence used was composed of SEQ ID NO: 16 for the FGFR2 part (nucleic acid 1 to nucleic acid 2574) and SEQ ID NO: 18 for the VCL part (nucleic acid 2117 to nucleic acid 5482).
(§2) Rat2 cells obtained as per Example 4 (either parental cells or cells expressing FGFR2-VCL or FGFR2-CCDC147 fusion polypeptide) were used in this assay. Cells were seeded in 96 well plates and cultured for 24 h before addition of FGFR inhibitors (the same as in section (1) above). After 72 h of further incubation, cell growth was analyzed by determination of the cellular ATP content (Cell Titer Glo; Promega) using a luminescence plate reader.

[2] = system: FGFR2-CCDC147 expressing Rat2 cells; test: Cell proliferation assay using Cell Titer Glo, FGFR2-CCDC147 expressing cells; format: cell-based, rat; conditions: 72 h with inhibitor, cellular ATP content (Cell Titer Glo), read-out: Relative IC50
Protocol: as §1, §2

[3] = system: FGFR2-VCL expressing Rat2 cells; test: Cell proliferation assay using FACS, FGFR2-VCL expressing cells; format: cell-based, rat; conditions: 72 h with inhibitor, cells counted by FACS, read-out: Relative IC50
Protocol: (§3) At the end of the incubation period, cells were counted by FACS. IC50 values were calculated in Graphpad Prism 6 using sigmoidal response (variable slope) curve fit.

[4] = system: FGFR2-CCDC147 expressing Rat2 cells; test: Cell proliferation assay using FACS, FGFR2-CCDC147 expressing cells; format: cell-based, rat; conditions: 72 h with inhibitor, cells counted by FACS, read-out: Relative IC50
Protocol: as §3

Rat2-FGFR2-CCDC147 tumor = test: In vivo sensitivity, subcutaneously implanted Rat2-FGFR2-CCDC147 tumor model; design: species or system female NMRI nude mice; conditions: 30 and 60 mg/kg orally once daily for 14 consecutive days
Protocol: On Day 0, 5×10^6 FGFR2-CCDC147-expressing Rat2 cells in 100 μl PBS were subcutaneously implanted into the left flank of 5-6 week-old female NMRI nude mice (group size of 6 animals). […] Primary tumor sizes were measured twice weekly by calipering. Animals were terminated on last day of treatment and tumors weighed at necropsy.

Rat2-FGFR2-VCL tumor = test: In vivo sensitivity, subcutaneously implanted Rat2-FGFR2-VCL tumor model; design: species or system female NMRI nude mice
Protocol: On Day 0, 1×10^6 FGFR2-VCL expressing Rat2 cells in 100 μl PBS were subcutaneously implanted into the left flank of 5-6 week-old female NMRI nude mice (group size of 6 animals).
Primary tumor sizes were measured twice weekly by calipering. Animals were terminated on last day of treatment and tumors weighed at necropsy.

Rat2 parental cells [5] = conditions: read-out: Relative IC50, 72 h with inhibitor, cellular ATP content (Cell Titer Glo)
Protocol: as §1, §2

Rat2 parental cells [6] = test: Cell proliferation assay using FACS, parental cells; format: cell-based, rat; conditions: 72 h with inhibitor, cells counted by FACS, read-out: Relative IC50
Protocol: as §1

[7] = biological target: T1, FGFR2-CCDC147 fusion polypeptide (Homo sapiens, UniProt P21802); test: Autophosphorylation of FGFR2-CCDC147 in transiently transfected HEK293T cells, Western blot; format: cell-based; conditions: FGFR2-CCDC147-expressing HEK293T cells, 1E-05 M, 90 min
T1 construct: CCDC147 (CFAP58) polypeptide part (fusion partner, same polypeptide); expressed in transfected cells; host or cells: HEK293T; the other entry of the earlier key: CFAP58 (Q5T655, Cilia- and flagella-associated protein 58)
T1 sequence (P21802 with tags, fused parts or gaps): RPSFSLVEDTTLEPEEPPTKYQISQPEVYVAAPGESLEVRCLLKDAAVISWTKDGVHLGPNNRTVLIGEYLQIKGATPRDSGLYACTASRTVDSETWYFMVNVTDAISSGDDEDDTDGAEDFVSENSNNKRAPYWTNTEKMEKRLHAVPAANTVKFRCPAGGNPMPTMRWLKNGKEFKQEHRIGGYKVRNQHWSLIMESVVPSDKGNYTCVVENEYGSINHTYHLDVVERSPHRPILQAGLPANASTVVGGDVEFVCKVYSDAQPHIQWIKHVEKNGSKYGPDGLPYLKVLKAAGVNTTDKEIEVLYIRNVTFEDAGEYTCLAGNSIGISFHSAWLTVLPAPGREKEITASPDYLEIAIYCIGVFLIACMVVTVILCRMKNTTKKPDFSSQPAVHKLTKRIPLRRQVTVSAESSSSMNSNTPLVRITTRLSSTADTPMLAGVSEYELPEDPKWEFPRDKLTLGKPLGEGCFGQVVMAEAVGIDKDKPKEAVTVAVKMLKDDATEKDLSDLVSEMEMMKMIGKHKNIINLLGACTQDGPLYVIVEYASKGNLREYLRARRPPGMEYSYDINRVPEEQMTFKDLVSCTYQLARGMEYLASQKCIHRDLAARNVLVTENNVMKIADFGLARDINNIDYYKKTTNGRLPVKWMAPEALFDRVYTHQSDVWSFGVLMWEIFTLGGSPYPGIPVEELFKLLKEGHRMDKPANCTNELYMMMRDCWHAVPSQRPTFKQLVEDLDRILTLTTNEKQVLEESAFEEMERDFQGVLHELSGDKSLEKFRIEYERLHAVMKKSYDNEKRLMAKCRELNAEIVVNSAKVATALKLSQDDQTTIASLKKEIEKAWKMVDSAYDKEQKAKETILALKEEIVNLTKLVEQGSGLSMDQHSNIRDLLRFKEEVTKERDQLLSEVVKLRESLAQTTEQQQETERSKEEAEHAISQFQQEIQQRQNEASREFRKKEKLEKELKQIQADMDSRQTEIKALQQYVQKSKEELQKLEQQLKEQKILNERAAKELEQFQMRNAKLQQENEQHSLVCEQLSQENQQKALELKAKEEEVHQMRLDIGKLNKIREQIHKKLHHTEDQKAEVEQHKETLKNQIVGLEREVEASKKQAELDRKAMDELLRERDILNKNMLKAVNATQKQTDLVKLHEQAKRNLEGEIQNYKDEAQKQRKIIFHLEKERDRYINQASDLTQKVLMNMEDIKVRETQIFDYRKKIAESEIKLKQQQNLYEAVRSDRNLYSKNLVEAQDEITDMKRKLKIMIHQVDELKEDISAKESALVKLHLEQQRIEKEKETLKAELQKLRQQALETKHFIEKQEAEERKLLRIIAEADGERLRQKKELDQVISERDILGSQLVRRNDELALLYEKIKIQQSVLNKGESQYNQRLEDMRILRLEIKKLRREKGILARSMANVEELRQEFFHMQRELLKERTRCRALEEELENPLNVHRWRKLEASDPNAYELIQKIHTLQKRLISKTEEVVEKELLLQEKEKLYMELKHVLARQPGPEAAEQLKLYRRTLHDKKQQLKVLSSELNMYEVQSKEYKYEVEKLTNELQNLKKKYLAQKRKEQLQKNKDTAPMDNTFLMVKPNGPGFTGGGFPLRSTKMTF
Excerpt: (§4) In this example, the following sequences were used: the FGFR2-CCDC147 fusion gene was composed of SEQ ID NO: 16 for the FGFR2 part (nucleic acid 1 to nucleic acid 2574) and SEQ ID NO: 20 for the CCDC147 part (nucleic acid 156 to nucleic acid 3313); and the FGFR2-VCL fusion gene was composed of SEQ ID NO: 16 for the FGFR2 part (nucleic acid 1 to nucleic acid 2574) and SEQ ID NO: 18 for the VCL part (nucleic acid 2117 to nucleic acid 5482).
(§5) HEK293T cells were transiently transfected with expression plasmids containing either an FGFR2-VCL or an FGFR2-CCDC147 fusion gene, which genes had been supplemented with a C-terminal double myc-tag extension. As a negative control, HEK293T cells were mock-transfected. […] The expression of myc-tagged fusion polypeptide was determined using the anti-myc antibody 9E10 (α-myc), and the phosphorylation analysis was performed with the anti-phospho-tyrosine antibody pY99 (α-pY).

[8] = biological target: T1, FGFR2-CCDC147 fusion polypeptide; test: Autophosphorylation of FGFR2-CCDC147 in transiently transfected HEK293T cells, sandwich phosphotyrosine ELISA; format: cell-based; conditions: FGFR2-CCDC147-expressing HEK293T cells, 1E-05 M, 90 min
Excerpt: as §4
(§6) After treatment, autophosphorylation of the FGFR2 fusion polypeptides was analysed using a sandwich phosphotyrosine ELISA. Each condition was done in duplicates.

[9] = biological target: T2, FGFR2-VCL fusion polypeptide (Homo sapiens, UniProt P21802); test: Autophosphorylation of FGFR2-VCL in transiently transfected HEK293T cells, Western blot; format: cell-based; conditions: FGFR2-VCL-expressing HEK293T cells, 1E-05 M, 90 min
T2 construct: VCL polypeptide part (fusion partner, same polypeptide); expressed in transfected cells; host or cells: HEK293T; the other entry of the earlier key: VCL (P18206, Vinculin)
T2 sequence (P21802 with tags, fused parts or gaps): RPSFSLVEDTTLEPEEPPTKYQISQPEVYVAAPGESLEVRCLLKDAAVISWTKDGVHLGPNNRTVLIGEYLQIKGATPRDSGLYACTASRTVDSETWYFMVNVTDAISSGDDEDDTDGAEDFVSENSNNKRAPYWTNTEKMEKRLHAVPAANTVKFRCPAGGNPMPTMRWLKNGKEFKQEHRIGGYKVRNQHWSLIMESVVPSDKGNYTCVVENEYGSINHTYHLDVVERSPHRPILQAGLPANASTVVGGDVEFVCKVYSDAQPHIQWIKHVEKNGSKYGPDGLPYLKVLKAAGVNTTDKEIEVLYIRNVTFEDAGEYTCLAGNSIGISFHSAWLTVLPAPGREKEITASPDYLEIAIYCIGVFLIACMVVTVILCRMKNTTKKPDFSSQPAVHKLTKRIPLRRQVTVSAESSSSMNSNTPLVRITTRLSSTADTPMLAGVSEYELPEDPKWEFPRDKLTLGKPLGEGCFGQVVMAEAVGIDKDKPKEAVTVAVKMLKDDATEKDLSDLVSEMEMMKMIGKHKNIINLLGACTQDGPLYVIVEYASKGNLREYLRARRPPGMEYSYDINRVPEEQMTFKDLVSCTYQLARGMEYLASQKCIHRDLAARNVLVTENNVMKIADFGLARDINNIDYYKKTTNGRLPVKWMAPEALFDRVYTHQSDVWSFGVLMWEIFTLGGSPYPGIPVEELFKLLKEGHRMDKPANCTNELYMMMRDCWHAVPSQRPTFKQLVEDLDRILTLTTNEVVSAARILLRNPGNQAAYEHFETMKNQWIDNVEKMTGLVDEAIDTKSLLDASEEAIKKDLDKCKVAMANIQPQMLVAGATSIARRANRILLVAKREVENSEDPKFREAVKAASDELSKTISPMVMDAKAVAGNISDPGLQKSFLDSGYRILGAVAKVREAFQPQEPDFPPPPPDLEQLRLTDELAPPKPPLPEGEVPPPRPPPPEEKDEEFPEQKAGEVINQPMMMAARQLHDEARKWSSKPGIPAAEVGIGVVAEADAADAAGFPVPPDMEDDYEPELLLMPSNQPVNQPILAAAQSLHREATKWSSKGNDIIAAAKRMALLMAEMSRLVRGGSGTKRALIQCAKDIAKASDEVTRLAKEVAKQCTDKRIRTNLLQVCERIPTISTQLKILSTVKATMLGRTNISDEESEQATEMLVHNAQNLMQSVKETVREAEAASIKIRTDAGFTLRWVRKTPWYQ
Excerpt: as §4, §5

[10] = biological target: T2, FGFR2-VCL fusion polypeptide; test: Autophosphorylation of FGFR2-VCL in transiently transfected HEK293T cells, sandwich phosphotyrosine ELISA; format: cell-based; conditions: FGFR2-VCL-expressing HEK293T cells, 1E-05 M, 90 min
Excerpt: as §4, §6

SMILES | IC50 [1] [nM] | IC50 [2] [nM] | IC50 [3] [nM] | IC50 [4] [nM] | effect on body weight (Rat2-FGFR2-CCDC147 tumor) | antitumor efficacy (tumor growth) (Rat2-FGFR2-CCDC147 tumor; established tumors) | antitumor efficacy (tumor growth) (Rat2-FGFR2-VCL tumor; 60 mg/kg-treated group, orally once daily for 14 consecutive days) | antitumor efficacy (tumor growth) (Rat2-FGFR2-VCL tumor; 30 and 60 mg/kg orally once daily for 14 consecutive days, established tumors) | effect on body weight (Rat2-FGFR2-VCL tumor; 30 or 60 mg/kg orally once daily for 14 consecutive days) | IC50 (Rat2 parental cells [5]) [nM] | IC50 (Rat2 parental cells [6]) [nM] | autophosphorylation of fusion polypeptide (anti-phospho-tyrosine Western blot) [7] | levels of FGFR phosphorylation (phosphotyrosine ELISA) [8] | autophosphorylation of fusion polypeptide (anti-phospho-tyrosine Western blot) [9] | levels of FGFR phosphorylation (phosphotyrosine ELISA) [10]
Cc1nc2cc(-n3ncc(C(=O)c4cc5ccccc5[nH]4)c3N)ccc2[nH]1 [Compound A] | 0.53 | 73.4 | 227 | 14.7 | no significant effect | inhibited tumor growth; also recorded: highly significant antitumoral efficacy | Tumor stasis | inhibited tumor growth; also recorded: highly significant and dose-dependent antitumoral efficacy | without significantly affecting body weight | > 3000 | > 1020 | – | – | – | –
COC(=O)c1ccc2c(c1)NC(=O)/C2=C(\Nc1ccc(N(C)C(=O)CN2CCN(C)CC2)cc1)c1ccccc1 [Vargatef] | – | – | – | – | – | – | – | – | – | – | – | somewhat more marginally | decreased | substantially reduced | decreased
